Marks after values point to notes of the source that are not given here.
Assays:
Format in all cases: in vivo
Conditions in all cases: 100 = 100% disease control
[1] = tested on: Botrytis cinerea; experiment: Test C: tomato Botrytis on tomato seedlings, sprayed the day before inoculation, visual disease rating
Procedure, shortened: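 Spray to run-off on tomato seedlings; test conc. 200 ppm (≈500 g/ha), some entries 40 ppm. Formulation: acetone 3% of final vol., then acetone/water 50:50 + 250 ppm polyhydric alcohol ester surfactant.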

[2] = tested on: Alternaria solani; experiment: Test D: tomato early blight, sprayed the day before inoculation, visual disease rating
Procedure, shortened: (§1)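 Spray suspension: acetone 3% of final volume, then 50/50 acetone/water plus 250 ppm Trem® 014. Applied to run-off on seedlings at 200 ppm (≈500 g/ha); starred entries tested at 40 ppm.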

[3] = tested on: Septoria nodorum; experiment: Test F: wheat glume blotch on wheat seedlings, sprayed the day before inoculation, visual disease rating
Procedure, shortened: as §1

[4] = tested on: Septoria tritici; experiment: Test G: wheat leaf blotch on wheat seedlings, sprayed the day before inoculation, visual disease rating
Procedure, shortened: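 Wheat seedlings were sprayed to run-off with test suspension (acetone/water plus surfactant), generally 200 ppm (≈500 g/ha), or 40 ppm where marked. Septoria tritici spores were inoculated the next day; plants were held 48 h at 24°C in saturated atmosphere, then 19 days at 20°C before visual disease rating.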

[5] = tested on: Puccinia recondita f. sp. tritici; experiment: Test I: wheat leaf rust on wheat seedlings, sprayed the day before inoculation, visual disease rating
Procedure, shortened: as §1

[6] = tested on: Erysiphe graminis f. sp. tritici; experiment: Test J: wheat powdery mildew on wheat seedlings, sprayed the day before inoculation, visual disease rating
Procedure, shortened: as §1

[7] = 200 ppm, 0 = no control relative to controls
[8] = 40 ppm (marked *), 0 = no control

Row | Compound | Test C disease control rating ([1]; 200 ppm, 0 = no control) [%] | Test D disease control rating ([2]; 200 ppm, 0 = no control) [%] | Test F disease control rating ([3]; 200 ppm, 0 = no control) [%] | Test G disease control rating ([4]; 200 ppm, 0 = no control) [%] | Test I disease control rating ([5]; 200 ppm, 0 = no control) [%] | Test J disease control rating ([6]; 200 ppm, 0 = no control) [%] | Test C disease control rating [1, 7] [%] | Test D disease control rating [2, 7] [%] | Test F disease control rating [3, 7] [%] | Test G disease control rating [4, 7] [%] | Test I disease control rating [5, 7] [%] | Test J disease control rating [6, 7] [%] | further results
1 | Fc1ccc(-c2c(Cl)nc(Cl)n2-c2ccc(Cl)c(F)c2)c(Cl)c1 [compound 229] | 98 | 99 | 0 | 98 | 89 | 91 | – | – | – | – | – | – | –
2 | Cc1ccc(-n2c(Cl)nc(Cl)c2-c2c(F)cc(F)cc2F)cc1 [compound 154] | 99 | 100 | 0 | 93 | 86 | 99 | – | – | – | – | – | – | –
3 | Fc1ccc(-n2c(Br)nc(Cl)c2-c2c(F)cc(F)cc2F)cc1 [compound 152] | 99 | 99 | 69 | 96 | 89 | 99 | – | – | – | – | – | – | –
4 | Cc1nn(C)c(-c2c(F)cc(F)cc2F)c1-c1cccc(F)c1 [compound 70] | – | – | – | – | – | – | 71 | 0 | 0 | 0 | 0 | 0 | –
5 | CCc1ccc(-n2c(Br)nc(Cl)c2-c2c(F)ccc(OC)c2F)cc1 [compound 441] | – | – | – | – | – | – | 97 | 99 | 0 | 97 | 97 | 99 | –
6 | COc1cc(F)c(-c2c(Cl)ncn2-c2ccc(C)cc2)c(F)c1 [compound 138] | – | – | – | – | – | – | 98 | 100 | 92 | 99 | 100 | 100 | –
7 | Cc1nc(Cl)n(-c2ccc(Cl)c(F)c2)c1-c1ccccc1F [compound 260] | 100 | 95 | 0 | 92 | 94 | 99 | – | – | – | – | – | – | –
8 | COc1cc(F)c(-c2c(Cl)nc(C)n2-c2ccc(Cl)cc2)c(Cl)c1 [compound 172] | 99 | 99 | 100 | 98 | 99 | 99 | – | – | – | – | – | – | –
9 | Cc1nc(Cl)n(-c2ccc(Cl)c(F)c2)c1-c1c(Cl)cncc1Cl [compound 262] | 99 | 99 | 69 | 96 | 100 | 100 | – | – | – | – | – | – | –
10 | COc1cc(F)c(-n2c(Cl)nc(Cl)c2-c2ccc(Cl)cc2)c(F)c1 [compound 297] | – | – | – | – | – | – | – | – | – | – | – | – | Test C disease control rating [1, 8]: 99* %; Test D disease control rating [2, 8]: 100* %; Test F disease control rating [3, 8]: 99* %; Test G disease control rating [4, 8]: 94* %; Test I disease control rating [5, 8]: 99* %; Test J disease control rating [6, 8]: 100* %
